Molecular target: T1, COX-2 (Rattus norvegicus, UniProt P35355)
T1 construct: endogenous COX-2 expression in naïve rats; from tissue; host or cells: brain of living naive rats
T1 sequence (P35355 18-604): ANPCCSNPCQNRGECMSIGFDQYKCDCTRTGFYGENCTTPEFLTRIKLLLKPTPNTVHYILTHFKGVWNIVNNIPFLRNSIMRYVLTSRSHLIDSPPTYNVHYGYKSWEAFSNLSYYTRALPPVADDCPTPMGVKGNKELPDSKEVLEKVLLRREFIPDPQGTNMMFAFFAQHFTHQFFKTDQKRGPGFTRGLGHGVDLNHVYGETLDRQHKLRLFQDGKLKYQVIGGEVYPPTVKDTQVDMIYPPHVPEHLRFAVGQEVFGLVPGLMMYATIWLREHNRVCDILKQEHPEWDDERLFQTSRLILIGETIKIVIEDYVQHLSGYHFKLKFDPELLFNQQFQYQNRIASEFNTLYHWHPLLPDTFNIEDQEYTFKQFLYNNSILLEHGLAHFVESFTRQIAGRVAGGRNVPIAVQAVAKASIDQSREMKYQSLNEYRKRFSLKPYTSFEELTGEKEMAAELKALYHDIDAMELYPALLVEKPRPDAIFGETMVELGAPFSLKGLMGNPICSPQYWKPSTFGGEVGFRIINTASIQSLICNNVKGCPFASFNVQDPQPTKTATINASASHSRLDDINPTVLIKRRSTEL
Assay: PET neuroimaging of naïve rats
Conditions: in vivo PET, result in words
Procedure: deepest would be injected and allowed to perfuse for 15 min until all three injections were completed.
In some experimental groups, mannitol was injected intraperitoneally (IP) or co -administered with the […]
After the surgical procedure was completed, animals were given enough time to recover (generally 28 days post-surgery) to facilitate cellular transduction with the AAV as well as subsequent expression of COX -2 and GFP, before subsequent imaging or IHC interrogation was conducted.
Rodent PET/MRI Acquisition
All PET and MRI experimental procedures were acquired on a 4.7 Tesla PET-MRI scanner using a B-GA20S HP gradient coil with a PET Insert Si 198 (Bruker Biospin, Billerica, MA). Custom 3D-printed cradles were used to secure anesthetized animals in the scanner. Rat and mice experimental groups were imaged separately. For rats, one animal was placed head-prone, and the other was placed tail-prone, aligning their heads in the scanner. For rat blocking experiments celecoxib was formulated in 20% ethanol, 30% polyethylene glycol and 50% saline and diluted appropriately to administer 1 mL/kg. For mice, up to six mice were inserted, two head prone and four tail prone. ParaVision 6 (Bruker) was used to acquire MR images, and ParaVision 360 (Bruker) was used to obtain PET images. […]

Question: With `[11CH3]S(=O)(=O)c1ccc(-c2cccc(NCc3ccoc3)n2)cc1` [[^11C]BRD1158] as the molecule, how does the brain uptake read?
Answer: rapid and robust brain uptake
